≈ marks a conversion by molar mass, not a printed value. Where two headings read alike, the source gives them in different places. Residues, ends and D or L forms follow the SMILES beside them.
Experiments:
P. aeruginosa PAO1 [1] = format: cell-based
Procedure: (§1) We note the close agreement with the MBIC and MBEC values determined by the fluorescence and CV methods, similar to what we found in our previous work for an S. aureus MRSA strain [23]. We also re-evaluated the MBEC values that are measured using the Calgary biofilm device (CBD), where biofilms form on pegs, rather than at the bottom of the 96-well plates. […] In particular, we find that the single Pro9Ala Tritrp-P9A-substituted version has better MIC, MBIC and MBEC activities than the parent peptide as well as the Tritrp-P59A analog with both prolines substituted to Ala.
(§2) Figure 4 The MIC (A), MBIC (B) and MBRC (C) values for the peptides were assessed against P. aeruginosa PAO1 in the presence of 1× BM2. The inhibition of planktonic cells, the inhibition of biofilm cells and the reduction in biofilm cells were determined for the peptides by recording of the planktonic cells at 600 nm and quantification of biofilms formed by Pa PAO1 using crystal violet at 595 nm, respectively. Three biological replicates were run for each test sample, and the mean was calculated for the recorded absorption values. Data points with error bars indicate the standard deviation (±SD).
(§3) Figure 6 The MIC (A), MBIC (B) and MBEC (C) values for the tritrpticin-Lys derivatives against P. aeruginosa PAO1 were assessed by the crystal violet (CV) assay for the measurement of inhibition of biofilm formation and eradication of biofilm cells, respectively. The biofilm cells were rinsed, stained with 0.1% crystal violet for 15 min and then rinsed again. The CV was released from biofilm cells by the addition of 95% ethanol and quantified by reading on a spectrometer at 595 nm. Three replicates were run for each sample, the values were averaged and the error bars represent the standard deviation (±SD).
(§4) The methods to determine the MIC, MBIC and MBEC have been described in detail in our previous publication. The green fluorescent protein (GFP)-producing P. aeruginosa and S. aureus strains that were used in this work were also described in the earlier publication. Fluorescence detection was used as the main method to estimate the number of cells entrapped in the biofilm matrix. The methodology used for evaluation of the antibiofilm properties against an original Pseudomonas PA01 strain by crystal violet dye staining and the use of the Calgary biofilm device has been described elsewhere. The regular PA01 strain was provided by Dr. J. Harrison, Calgary. All measurements were carried out on an Eppendorf AF2200 plate reader. Every 96-well plate included controls for bacterial cell growth without peptide treatment and media alone. All measurements were carried out in triplicate, and the values in the figures represent the average and the error bars are standard deviation.

S. aureus GFP [2] = experiment: MBIC, GFP fluorescence method; format: cell-based, Staphylococcus aureus; conditions: Table 4, Sa GFP, 10% TSB and 0.1% glucose, mean of three biological replicates
Procedure: (§5) Figure 3 The MIC (A), MBIC (B) and MBEC (C) values for the tritrpticin analog peptides were assessed against Sa GFP. The MIC values were determined by measuring the absorbance of bacterial cells at 600 nm. The MBIC and MBEC values were determined by recording the fluorescence at 480 nm and 530 nm from the biofilms of GFP-expressing Sa. Three biological replicates were run for each test sample, and the mean was calculated for the recorded absorption or fluorescence values. In the graphs, the error bars represent the standard deviation (±SD).
as §4

P. aeruginosa PAO1 [3] = format: cell-based, Pseudomonas aeruginosa; conditions: Table 5; PAO1, 1x BM2; biofilms on pegs, cells plated and counted; three biological replicates
Procedure: as §1
Figure 5 The MBEC values for the peptides were assessed against P. aeruginosa PAO1 in the presence of 1× BM2 medium. The eradication of biofilm cells was determined for the peptides using the counting of biofilm cells formed by Pa PAO1. Three biological replicates were run for each test sample, and the mean was calculated for counted cell values. Data points with error bars indicate the standard deviation (±SD).
as §4

P. aeruginosa PAO1 GFP [4] = experiment: MBEC, biofilm eradication, GFP fluorescence method; format: cell-based, Pseudomonas aeruginosa; conditions: Table 2, BM2 medium, mean of three biological replicates
Procedure: as §5, with “Figure 1” for “Figure 3”, “against Pa PAO1” for “against Sa”, “GFP-expressing PAO1.” for “GFP-expressing Sa.”
(§6) Figure 2 The MIC (A), MBIC (B) and MBEC (C) values for the tritrpticin-Lys derivative peptides were assessed against Pa PAO1 GFP. The MIC values were determined by measuring the absorbance of bacterial cells at 600 nm. The MBIC and MBEC values were determined by recording the fluorescence at 480 nm and 530 nm from the biofilms of GFP-expressing PAO1. Three replicates were run for each sample, the values were averaged and the error bars represent the standard deviation (±SD).
as §4

P. aeruginosa PAO1 GFP [5] = experiment: MBIC, prevention of biofilm formation, GFP fluorescence method; format: cell-based, Pseudomonas aeruginosa; conditions: Table 2, BM2 medium, mean of three biological replicates
Procedure: as §5, with “Figure 1” for “Figure 3”, “against Pa PAO1” for “against Sa”, “GFP-expressing PAO1.” for “GFP-expressing Sa.”
as §6, §4

S. aureus GFP [6] = experiment: MBEC, GFP fluorescence method; format: cell-based, Staphylococcus aureus; conditions: Table 4, Sa GFP, 10% TSB and 0.1% glucose, mean of three biological replicates
Procedure: as §5, §4

S. aureus GFP [7] = experiment: MIC against planktonic cells, absorbance at 600 nm; format: cell-based, Staphylococcus aureus; conditions: Table 4; Sa GFP, 10% TSB and 0.1% glucose; absorbance 600 nm; mean of three biological replicates
Procedure: as §5, §4

S. aureus GFP [8] = format: cell-based, Staphylococcus aureus; conditions: Table 4; Sa GFP; lowest concentration of peptide with no bacterial growth seen on the spot agar plate
Text: as §4

P. aeruginosa PAO1 GFP [9] = experiment: MIC against planktonic cells, absorbance at 600 nm; format: cell-based, Pseudomonas aeruginosa; conditions: Table 2, BM2 medium, absorbance 600 nm, mean of three biological replicates
Procedure: as §5, with “Figure 1” for “Figure 3”, “against Pa PAO1” for “against Sa”, “GFP-expressing PAO1.” for “GFP-expressing Sa.”
as §6, §4

P. aeruginosa PAO1 [10] = format: cell-based, Pseudomonas aeruginosa; conditions: Table 5; regular PAO1 (no GFP), 1x BM2; absorbance 600 nm; mean of three biological replicates
Procedure: as §2, §3, §4

[11] = Table 5, PAO1, 1x BM2, crystal violet at 595 nm, mean of three biological replicates
[12] = Table 5, minimum biofilm reduction concentration, PAO1, 1x BM2, crystal violet at 595 nm, mean of three biological replicates

Structure (SMILES)	MBIC (CV at 595 nm) LD50 (P. aeruginosa PAO1 [1]; [11]) [µmol/L]	MBIC (CV at 595 nm) LD90 (P. aeruginosa PAO1 [1]; [11]) [µmol/L]	MBRC (CV at 595 nm) LD90 (P. aeruginosa PAO1 [1]; [12]) [µmol/L]	MBIC at 488 and 530 nm LD50 (S. aureus GFP [2]) [µmol/L]	MBIC at 488 and 530 nm LD90 (S. aureus GFP [2]) [µmol/L]	MBEC from Calgary Biofilm Device (CBD) LD50 (P. aeruginosa PAO1 [3]) [µmol/L]	MBEC from Calgary Biofilm Device (CBD) LD90 (P. aeruginosa PAO1 [3]) [µmol/L]	MBEC at 488 and 530 nm LD50 (P. aeruginosa PAO1 GFP [4]) [µmol/L]	MBEC at 488 and 530 nm LD90 (P. aeruginosa PAO1 GFP [4]) [µmol/L]	MBIC at 488 and 530 nm LD50 (P. aeruginosa PAO1 GFP [5]) [µmol/L]	MBIC at 488 and 530 nm LD90 (P. aeruginosa PAO1 GFP [5]) [µmol/L]	MBEC at 488 and 530 nm LD50 (S. aureus GFP [6]) [µmol/L]	MBEC at 488 and 530 nm LD90 (S. aureus GFP [6]) [µmol/L]	MIC at 600 nm LD50 (S. aureus GFP [7]) [µmol/L]	MIC at 600 nm LD90 (S. aureus GFP [7]) [µmol/L]	MBC Agar Plate (S. aureus GFP [8]) [µmol/L]	MIC at 600 nm LD50 (P. aeruginosa PAO1 GFP [9]) [µmol/L]	MIC at 600 nm LD90 (P. aeruginosa PAO1 GFP [9]) [µmol/L]	MIC at 600 nm LD50 (P. aeruginosa PAO1 [10]) [µmol/L]	MIC at 600 nm LD90 (P. aeruginosa PAO1 [10]) [µmol/L]	further results
CC(C)[C@H](NC(=O)[C@@H]1CCCN1C(=O)[C@@H](N)Cc1ccccc1)C(=O)N[C@H](C(=O)N[C@@H](Cc1c[nH]c2ccccc12)C(=O)N[C@@H](CCCNC(=N)N)C(=O)N[C@@H](Cc1c[nH]c2ccccc12)C(=O)N[C@@H](Cc1c[nH]c2ccccc12)C(=O)N[C@@H](CCCNC(=N)N)C(=O)N[C@@H](Cc1c[nH]c2ccccc12)C(=O)N[C@@H](Cc1c[nH]c2ccccc12)C(=O)N[C@@H](CCCNC(=N)N)C(=O)NCC(N)=O)[C@@H](C)O [PuroA-Arg, reference compound] (H-FPVTWRWWRWWRG-NH2)	16	16	32	4	4	16	64	32	128	8	8	8	16	4 (≈ 7.67 µg/mL)	4 (≈ 7.67 µg/mL)	8 (≈ 15.3 µg/mL)	8 (≈ 15.3 µg/mL)	16 (≈ 30.7 µg/mL)	8 (≈ 15.3 µg/mL)	16 (≈ 30.7 µg/mL)	MBRC (CV at 595 nm) LD50 (P. aeruginosa PAO1 [1]; [12]): 32 µmol/L
CC(C)[C@H](NC(=O)[C@@H]1CCCN1C(=O)[C@@H](N)Cc1ccccc1)C(=O)N[C@H](C(=O)N[C@@H](Cc1c[nH]c2ccccc12)C(=O)N[C@@H](CCCCN)C(=O)N[C@@H](Cc1c[nH]c2ccccc12)C(=O)N[C@@H](Cc1c[nH]c2ccccc12)C(=O)N[C@@H](CCCCN)C(=O)N[C@@H](Cc1c[nH]c2ccccc12)C(=O)N[C@@H](Cc1c[nH]c2ccccc12)C(=O)N[C@@H](CCCCN)C(=O)NCC(N)=O)[C@@H](C)O [PuroA-Lys, reference compound] (H-FPVTWKWWKWWKG-NH2)	8	16	32	2	4	32	64	64	64	4	8	8	8	2 (≈ 3.67 µg/mL)	4 (≈ 7.34 µg/mL)	8 (≈ 14.7 µg/mL)	4 (≈ 7.34 µg/mL)	8 (≈ 14.7 µg/mL)	8 (≈ 14.7 µg/mL)	16 (≈ 29.3 µg/mL)	MBRC (CV at 595 nm) LD50 (P. aeruginosa PAO1 [1]; [12]): 32 µmol/L
CC(C)C[C@H](NC(=O)[C@H](Cc1ccccc1)NC(=O)[C@@H]1CCCN1C(=O)[C@H](Cc1c[nH]c2ccccc12)NC(=O)[C@H](Cc1c[nH]c2ccccc12)NC(=O)[C@H](Cc1c[nH]c2ccccc12)NC(=O)[C@@H]1CCCN1C(=O)[C@H](Cc1ccccc1)NC(=O)[C@H](CCCNC(=N)N)NC(=O)[C@H](CCCNC(=N)N)NC(=O)[C@@H](N)C(C)C)C(=O)N[C@@H](CCCNC(=N)N)C(=O)N[C@@H](CCCNC(=N)N)C(N)=O [Tritrp-Arg]		8	32	1	2	16	32	8	16	2	8	1	2	0.5 (≈ 0.951 µg/mL)	2 (≈ 3.8 µg/mL)	2 (≈ 3.8 µg/mL)	4 (≈ 7.61 µg/mL)	8 (≈ 15.2 µg/mL)	4 (≈ 7.61 µg/mL)	8 (≈ 15.2 µg/mL)	MBIC (CV at 595 nm) LD50 (P. aeruginosa PAO1 [1]; PAO1): 4 µmol/L; MBRC (CV at 595 nm) LD50 (P. aeruginosa PAO1 [1]; PAO1): 32 µmol/L
CC(C)C[C@H](NC(=O)[C@H](Cc1ccccc1)NC(=O)[C@@H]1CCCN1C(=O)[C@H](Cc1c[nH]c2ccccc12)NC(=O)[C@H](Cc1c[nH]c2ccccc12)NC(=O)[C@H](Cc1c[nH]c2ccccc12)NC(=O)[C@@H]1CCCN1C(=O)[C@H](Cc1ccccc1)NC(=O)[C@H](CCCCN)NC(=O)[C@H](CCCCN)NC(=O)[C@@H](N)C(C)C)C(=O)N[C@@H](CCCCN)C(=O)N[C@@H](CCCCN)C(N)=O [Tritrp-Lys] (H-VKKFPWWWPFLKK-NH2)	32	32	64	2	2	128	128	64	64	16	32	1	2	1 (≈ 1.79 µg/mL)	2 (≈ 3.58 µg/mL)	4 (≈ 7.16 µg/mL)	32 (≈ 57.3 µg/mL)	32 (≈ 57.3 µg/mL)	32 (≈ 57.3 µg/mL)	32 (≈ 57.3 µg/mL)	MBRC (CV at 595 nm) LD50 (P. aeruginosa PAO1 [1]; PAO1): 64 µmol/L

Reference: publication PMC11858513, “Antibiofilm Activities of Tritrpticin Analogs Against Pathogenic Pseudomonas aeruginosa PA01 Strains” (Molecules, 2025)
